Data published in patent US20040077632A1, “Pharmaceutically active hydrophilic sulfonamide derivatives as inhibitors of protein junkinases” (priority 2000, published 2004).
In brackets after ≈: the same amount, converted by molar mass.

Tests used:
[1] = Solubility in water at pH 7.4; format: physicochemical; conditions: aqueous buffer, pH 7.4, r.t.
Protocol: The compounds have been assessed in respect of their solubility in water, at a pH of 7.4 at room temeprature. In general the solubility of compounds of formula (I) is in a range of at least 50 μg/mL solvent, more preferably of at least 100 μg/mL solvent.

[2] = target: JNK3 (Homo sapiens, UniProt P53779); assay: JNK3 in vitro assay (c-jun phosphorylation, 33P incorporation, SPA); format: biochemical; conditions: recombinant pre-activated GST-JNK3, biotinylated GST-c-Jun, 2 μM 33γ-ATP
Protocol: The phosphorylation of c-jun by JNK2 or JNK3 may be followed by monitoring the incorporation of ^33P into c-jun following the protocol below. The inhibitory activity of the compounds according to formula I, in respect of c-jun phosphorylation through JNK, is determined by calculating the phosphorylation activity of a JNK in the presence or absence of the test compounds according to formula I.
JNK3 and/or -2 assays are performed in 96 well MTT plates: incubation of 0.5 μg of recombinant, pre-activated GST-JNK3 or GST-JNK2 with 1 μg of recombinant, biotinylated GST-c-Jun and 2 μM ^33γ-ATP (2 nCi/μl), in the presence or absence of compounds according to formula I and in a reaction volume of 50 μl containing 50 mM Tris-HCl, pH 8.0; 10 mM MgCl2; 1 mM Dithiothreitol, and 100 μM NaVO4. The incubation is performed for 120 min. at R.T and stopped upon addition of 200 μl of a solution containing 250 μg of Streptavidine-coated SPA beads (Amersham, Inc.)*, 5 mM EDTA, 0.1% Triton X-100 and 50 μM ATP, in phosphate saline buffer. After incubation for 60 minutes at RT, beads are sedimented by centrifugation at 1500×g for 5 minutes, resuspended in 200 μl of PBS containing 5 mM EDTA, 0.1% Triton X-100 and 50 μM ATP and the radioactivity measured in a scintillation β counter, following sedimentation of the beads as described above. By replacing biotinylated GST-c Jun with biotinylated GST-1ATF2 or biotinylated myelin basic protein, this assay may also be used to measure inhibition of pre-activated p38 and ERK MAP Kinases, respectively.

Chain of JNK3 (P53779 whole entry): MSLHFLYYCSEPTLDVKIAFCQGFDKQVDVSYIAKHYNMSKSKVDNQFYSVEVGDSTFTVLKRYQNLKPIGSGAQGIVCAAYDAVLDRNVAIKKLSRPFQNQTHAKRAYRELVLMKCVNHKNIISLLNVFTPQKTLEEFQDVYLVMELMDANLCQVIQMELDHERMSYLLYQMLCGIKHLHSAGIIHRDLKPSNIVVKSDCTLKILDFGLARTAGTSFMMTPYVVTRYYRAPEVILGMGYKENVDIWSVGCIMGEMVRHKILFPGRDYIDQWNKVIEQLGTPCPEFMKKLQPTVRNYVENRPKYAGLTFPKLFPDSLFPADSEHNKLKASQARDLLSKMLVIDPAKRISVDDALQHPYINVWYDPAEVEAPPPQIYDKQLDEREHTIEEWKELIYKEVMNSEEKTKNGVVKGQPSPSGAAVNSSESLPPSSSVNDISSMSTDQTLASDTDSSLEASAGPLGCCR

| solubility [1] [µg/mL] | IC50 [2] [nM] | Molecule |
| --- | --- | --- |
| 180 (≈ 272 µM) | < 100 | COc1cccc(C(=O)NCc2cc(C(=O)O)c(S(=O)(=O)N3CCC(Nc4cccc(S(=O)(=O)C(F)(F)F)c4)CC3)s2)c1 [Example 1, 5-{[(3-methoxybenzoyl)amino]methyl}-2-[(4-{3-[(trifluoromethyl) -sulfonyl]anilino}piperidin-1-yl)sulfonyl]thiophene-3-carboxylic acid] |
|  | < 100 | COc1cccc(C(=O)NCc2cc(C(=O)O)c(S(=O)(=O)N3CCC(NCc4ccc(C(F)(F)F)cc4)CC3)s2)c1 [Example 4, 5-{[(3-methoxybenzoyl)amino]methyl}-2-[(4-{[4-(trifluoromethyl)benzyl]amino}-1-piperidinyl)sulfonyl]-3-thiophenecarboxylic acid] |
|  | < 100 | N-({4-(hydrazinocarbonyl)-5-[(4-{3-[(trifluoro-methyl)sulfonyl]anilino}piperidin-1-yl)sulfonyl]-thien-2-yl}methyl)-3-methoxybenzamide [Example 6] |
